Assay [1] concerns the target T1, HetC (Nostoc sp. PCC 7120 = FACHB-418, UniProt A0ACD7RTN5).
T1 construct: HetCNTD, N-terminal domain (first 480 residues)
Description: ITC (triplicate), supported by nanoDSF shift (ΔTm […] °C at […]). The assay is classed as binding.

Assay [2] deals with T2, HetC (Nostoc sp. PCC 7120 = FACHB-418, UniProt A0ACD7RTN5).
T2 construct: HetCNTD, N-terminal domain (first 480 residues; includes C39 peptidase domain), hexa-his tagged
T2 sequence (A0ACD7RTN5 1-480): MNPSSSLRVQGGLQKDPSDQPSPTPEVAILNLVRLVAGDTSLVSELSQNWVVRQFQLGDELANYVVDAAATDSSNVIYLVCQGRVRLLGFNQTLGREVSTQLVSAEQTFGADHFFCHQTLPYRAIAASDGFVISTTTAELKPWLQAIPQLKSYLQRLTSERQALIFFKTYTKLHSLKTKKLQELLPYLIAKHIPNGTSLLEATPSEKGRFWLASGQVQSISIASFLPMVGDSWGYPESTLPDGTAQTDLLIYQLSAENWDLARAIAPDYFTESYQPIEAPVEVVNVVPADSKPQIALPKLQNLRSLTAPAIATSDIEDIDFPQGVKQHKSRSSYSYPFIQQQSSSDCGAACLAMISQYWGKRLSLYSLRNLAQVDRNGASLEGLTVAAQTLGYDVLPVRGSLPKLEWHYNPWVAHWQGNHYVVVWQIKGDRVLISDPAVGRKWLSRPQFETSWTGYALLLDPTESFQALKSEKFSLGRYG
Description: chromogenic peptidase assay at […] nm with purified HetCNTD, […] substrate. The assay is classed as biochemical.

Experimental findings from article PMC10986499, “Unravelling HetC as a peptidase-based ABC exporter driving functional cell differentiation in the cyanobacterium Nostoc PCC 7120” (Microbiology Spectrum, 2024) are described below.

As a reminder, the Kd is the concentration at which binding is half-saturated. Turning to `Nc1nc2c(ncn2[C@@H]2O[C@H](COP(=O)(O)OP(=O)(O)O)[C@@H](OP(=O)(O)OP(=O)(O)O)[C@H]2O)c(=O)[nH]1` [ppGpp], the dissociation constant (Kd) in assay [1] was roughly 59 µM.
`N=C(N)NCCC[C@H](N)C(=O)Nc1ccc([N+](=O)[O-])cc1` [L-Arginine p-nitroanilide]: in assay [2], the “chromogenic peptidase assay at 405 nm with purified HetCNTD, 1 mM substrate” value is recorded as 0.22 ± 0.08 pmol/min/µg of protein.
